{"source": "patent US8846066B2", "about": "“Methods and related compositions for reduction of fat and skin tightening” (The Regents of the University of California, priority 2004, dated 2014)", "key": {"[1]": {"system": "porcine skin (epidermis, dermis, subcutaneous tissue, muscle)", "experiment": "Histology of full thickness porcine skin after injection", "procedure": "Histology was performed by injecting stock reagent solutions (0.5 mL) into full thickness porcine skin at various levels (epidermis, dermis, and subcutaneous tissue) with 1.0 mL syringes and 30-gauge, 0.5 inch needles. Needle depth was visualized along the margin of the porcine tissue with the intent of saturating the target tissue. One hour after incubation with PBS at 37° C., multiple 5.0 mm biopsy specimens were obtained from the injected sites, each condition performed in triplicate. Tissue was fixed in formaldehyde, paraffin-embedded, and stained with hematoxylin-eosin. Specimens were evaluated by a board-certified dermatopathologist who was blinded to the treatment protocol."}, "[2]": {"system": "porcine fat tissue", "experiment": "MTS assay in fresh porcine fat specimens", "format": "cell-based", "conditions": "PBF or 5% solutions, 4 hours", "procedure": "To measure cell viability after detergent treatment, HaCaT human keratinocyte cells were cultured in DMEM (Dulbecco's modified Eagle's medium) supplemented with 10% fetal calf serum, penicillin, and streptomycin. […] Cell viability was determined by an absorbance spectrophotometer (at 490 nm) after 4 hour incubation with the assay at 37° C. To determine cell viability in fresh tissue, fat specimens were incubated for 4 hours in 24 well plates with stock reagents and the MTS assay. Tissue specimens were then visualized for color change and the amount of MTS in their supernatants was measured by absorbance (at 490 nm). All studies were performed in triplicate. Absorbance at 490 nm (OD 490) is proportional to the number of living cells in the culture.\nPorcine tissue was obtained immediately after sacrifice, shaved, and placed on ice for a maximum of four hours before use. […] Calcein retention was determined by tissue fluorescence using purple (411 nm) light and visually observing the emitted green (500 nm) light using an emission filters.\nFresh porcine skin was used to determine if the effects of these detergent substances on cultured cells were similar in tissue. […] The difference in fat cell viability between the solutions was quantified by measuring the absorbance (at 490) of the supernatants collected from the treated fat specimens (FIG. 3b). […]"}, "[3]": {"system": "adipocytes", "experiment": "Adipocyte survival on addition of PC to 4.75% DC", "format": "cell-based", "conditions": "5% phosphatidylcholine added to 4.75% DC", "procedure": "FIG. 9 illustrates survival of adipocytes when phosphatidylcholine is added to 4.75% sodium deoxycholate solution. On y-axis, 1 represents 100% survival. All % concentrations are w/v %. Survival of the cells in the absence of DC and PC is on an average 0.113."}}}
{"compound": "CCCCCCCCCCCC[N+](C)(C)CC(=O)[O-]", "note": "[Empigen, lauryldimethylbetaine, reference compound]", "values": [{"measurement": "histologic changes in epidermis, dermis, adnexal structures", "setting": "[1]", "value": "loss of fibroblast nuclear staining and hyalinization of dermal collagen"}]}
{"compound": "alkylaryl polyether alcohol [Triton, reference compound]", "values": [{"measurement": "fat cell viability (MTS purple dye, absorbance at 490)", "setting": "[2]", "value": "comparable loss of purple dye"}]}
{"compound": "phosphatidylcholine", "values": [{"measurement": "effect of phosphatidylcholine on adipolysis", "setting": "[3]", "value": "inhibits adipolysis slightly"}]}
